Data: patent US12281079B2, “Quinoline derivatives, processes for their preparation and uses thereof for the treatment of cancer” (Lead Discovery Center GmbH, priority 2019, dated 2025)

Key:
[1] = system: mitochondrial transcription (7S RNA) in HeLa cells; experiment: Quantitative real time-PCR assay of inhibition of mitochondrial transcription (7S RNA) in HeLa cells; format: cell-based; details: Homo sapiens, 4 h compound incubation, according to Example 5, read-out: cellular qPCR assay
Outline: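 HeLa cells were exposed to compound dilution series or DMSO for 4 h, then RNA was extracted, normalized and reverse-transcribed. TaqMan qRT-PCR measured short-lived 7S RNA, with POLRMT as nuclear-transcription readout and TBP as housekeeping gene. Biological triplicates were analyzed by ΔΔCt and reported as Rq % (2−ΔΔCt).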

[2] = molecular target: mitochondrial RNA polymerase (POLRMT) (Mus musculus, UniProt Q8BKF1); experiment: Homogeneous TR-FRET assay for mitochondrial transcription activity; format: biochemical; details: homogeneous TR-FRET assay according to Example 4
Outline: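 Read-out is TR-FRET (ex 340, em 665 nm) from two adjacent labelled DNA probes annealing to the 407 bp transcript after EDTA/700 mM NaCl stop. Reaction: murine POLRMT, TFAM, TFB2M and LSP plasmid template, compound 10 μM or serial dilution, 10 min rt preincubation, 500 μM each nucleotide, 2 h rt.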

mitochondrial RNA polymerase (POLRMT), sequence (Q8BKF1 42-1207): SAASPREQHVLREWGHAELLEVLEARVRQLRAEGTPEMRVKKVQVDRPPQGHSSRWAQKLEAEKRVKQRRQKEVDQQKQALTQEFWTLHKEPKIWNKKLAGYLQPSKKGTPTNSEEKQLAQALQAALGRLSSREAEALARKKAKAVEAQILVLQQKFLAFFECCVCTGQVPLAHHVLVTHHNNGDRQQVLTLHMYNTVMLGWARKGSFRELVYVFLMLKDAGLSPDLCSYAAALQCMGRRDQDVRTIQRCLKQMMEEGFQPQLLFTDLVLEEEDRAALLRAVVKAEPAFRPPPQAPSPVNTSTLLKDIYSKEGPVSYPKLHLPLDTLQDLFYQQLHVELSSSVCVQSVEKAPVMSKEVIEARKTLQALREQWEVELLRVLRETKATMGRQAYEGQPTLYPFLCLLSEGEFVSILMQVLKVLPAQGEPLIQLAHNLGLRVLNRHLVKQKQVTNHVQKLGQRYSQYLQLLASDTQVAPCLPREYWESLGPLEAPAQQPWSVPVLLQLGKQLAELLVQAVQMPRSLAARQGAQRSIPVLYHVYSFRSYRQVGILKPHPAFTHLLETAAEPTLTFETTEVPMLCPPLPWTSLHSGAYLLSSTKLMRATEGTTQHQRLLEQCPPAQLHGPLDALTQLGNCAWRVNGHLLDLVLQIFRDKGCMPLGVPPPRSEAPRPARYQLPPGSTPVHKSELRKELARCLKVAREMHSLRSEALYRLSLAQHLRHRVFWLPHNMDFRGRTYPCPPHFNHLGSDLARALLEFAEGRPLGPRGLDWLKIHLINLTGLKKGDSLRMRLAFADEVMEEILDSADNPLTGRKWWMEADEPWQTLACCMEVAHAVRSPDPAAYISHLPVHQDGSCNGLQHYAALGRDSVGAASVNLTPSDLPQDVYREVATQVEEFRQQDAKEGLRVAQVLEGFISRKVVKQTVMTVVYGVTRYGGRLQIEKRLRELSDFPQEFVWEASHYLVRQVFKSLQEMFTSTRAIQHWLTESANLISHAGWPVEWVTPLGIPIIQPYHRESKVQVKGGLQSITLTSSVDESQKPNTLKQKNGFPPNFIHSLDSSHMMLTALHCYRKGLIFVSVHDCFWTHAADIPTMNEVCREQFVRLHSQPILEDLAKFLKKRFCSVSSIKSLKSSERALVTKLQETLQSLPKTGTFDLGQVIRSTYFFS

| Structure (SMILES) | IC50 [1] [nM] | IC50 [2] [nM] |
| --- | --- | --- |
| C[C@@H](Oc1ccc2c(-c3ccccc3Cl)ccnc2c1)C(=O)N1CCC(CC(=O)O)CC1 [Compound 112, 2-[1-[(2R)-2-[[4-(2-chlorophenyl)-7-quinolyl]oxy]propanoyl]-4-piperidyl]acetic acid] | 10 to 50 | 20 to 100 |
| Cc1cc(-c2c(C)cccc2C)c2ccc(O[C@H](C)C(=O)N3CCC[C@H](S(N)(=O)=O)C3)cc2n1 [Compound 113, (3S)-1-[(2R)-2-[[4-(2,6-dimethylphenyl)-2-methyl-7-quinolyl]oxy]propanoyl]piperidine-3-sulfonamide] | 50 to 500 | 100 to 1000 |
| Cc1cc(-c2c(C)cccc2C)c2ccc(O[C@H](C)C(=O)N3CCC[C@@H](S(N)(=O)=O)C3)cc2n1 [Compound 114, (3R)-1-[(2R)-2-[[4-(2,6-dimethylphenyl)-2-methyl-7-quinolyl]oxy]propanoyl]piperidine-3-sulfonamide] | 10 to 50 | 100 to 1000 |
| Cc1cc(-c2ccc(F)cc2Cl)c2ccc(O[C@H](C)C(=O)N3CCC[C@@H](S(N)(=O)=O)C3)cc2n1 [Compound 115, (3R)-1-[(2R)-2-[[4-(2-chloro-4-fluoro-phenyl)-2-methyl-7-quinolyl]oxy]propanoyl]piperidine-3-sulfonamide] | 50 to 500 | 1000 to 10000 |
| C[C@@H](Oc1ccc2c(-c3ccc(F)cc3Cl)ccnc2c1)C(=O)N1CCC[C@H](S(N)(=O)=O)C1 [Compound 116, (3S)-1-[(2R)-2-[[4-(2-chloro-4-fluoro-phenyl)-7-quinolyl]oxy]propanoyl]piperidine-3-sulfonamide] | < 10 | 100 to 1000 |
| C[C@@H](Oc1ccc2c(-c3ccc(F)cc3Cl)ccnc2c1)C(=O)N1CCC[C@@H](S(N)(=O)=O)C1 [Compound 117, (3R)-1-[(2R)-2-[[4-(2-chloro-4-fluoro-phenyl)-7-quinolyl]oxy]propanoyl]piperidine-3-sulfonamide] | 10 to 50 | 100 to 1000 |
| C[C@@H](Oc1ccc2c(-c3ccccc3Cl)ccnc2c1)C(=O)N1CCC(CCC(=O)O)CC1 [Compound 118, 3-[1-[(2R)-2-[[4-(2-chlorophenyl)-7-quinolyl]oxy]propanoyl]-4-piperidyl]propanoic acid] | 10 to 50 | < 20 |
| C[C@@H](Oc1ccc2c(-c3c(Cl)cccc3Cl)ccnc2c1)C(=O)N1CCC[C@H](CC(=O)O)C1 [Compound 120, 2-[(3R)-1-[(2R)-2-[[4-(2,6-dichlorophenyl)-7-quinolyl]oxy]propanoyl]-3-piperidyl]acetic acid] | 10 to 50 | < 20 |
| CCc1ccccc1-c1ccnc2cc(O[C@H](C)C(=O)N3CCC[C@H](CC(=O)O)C3)ccc12 [Compound 121, 2-((R)-1-((R)-2-((4-(2-ethylphenyl)quinolin-7-yl)oxy)propanoyl)piperidin-3-yl)acetic acid] | 10 to 50 | 20 to 100 |
| Cc1cc(-c2c(C)cccc2C)c2ccc(O[C@H](C)C(=O)N3CCC[C@H](CC(=O)O)C3)cc2n1 [Compound 124, 2-[(3R)-1-[(2R)-2-[[4-(2,6-dimethylphenyl)-2-methyl-7-quinolyl]oxy]propanoyl]-3-piperidyl]acetic acid] | 50 to 500 | 100 to 1000 |
| C[C@@H](Oc1ccc2c(-c3ccc(F)cc3Cl)ccnc2n1)C(=O)N1CCC[C@H](C(=O)O)C1 [Compound 126, (3S)-1-[(2R)-2-[[5-(2-chloro-4-fluoro-phenyl)-1,8-naphthyridin-2-yl]oxy]propanoyl]piperidine-3-carboxylic acid] | 10 to 50 | 100 to 1000 |
| C[C@@H](Oc1ccc2c(-c3ccc(F)cc3Cl)ccnc2n1)C(=O)N1CCC[C@H](CC(=O)O)C1 [Compound 128, 2-[(3R)-1-[(2R)-2-[[5-(2-chloro-4-fluoro-phenyl)-1,8-naphthyridin-2-yl]oxy]propanoyl]-3-piperidyl]acetic acid] | 50 to 500 | 100 to 1000 |
| C[C@@H](Oc1ccc2c(-c3c(Cl)cccc3Cl)ccnc2c1)C(=O)N1CCC[C@H](C(=O)O)C1 [Compound 129, (3S)-1-[(2R)-2-[[4-(2,6-dichlorophenyl)-7-quinolyl]oxy]propanoyl]piperidine-3-carboxylic acid] | < 10 | < 20 |
| C[C@@H](Oc1ccc2c(-c3ccc(F)cc3Cl)ccnc2c1)C(=O)Nc1ccccn1 [Compound 130, (2R)-2-[[4-(2-chloro-4-fluoro-phenyl)-7-quinolyl]oxy]-N-(2-pyridyl)propanamide] | 500 to 5000 | 100 to 1000 |
| CCNC(=O)[C@@H](C)Oc1ccc2c(-c3ccc(F)cc3Cl)ccnc2c1 [Compound 131] | 50 to 500 | 1000 to 10000 |
| C[C@@H](Oc1ccc2c(-c3c(Cl)cc(F)cc3Cl)ccnc2c1)C(=O)N1CCC[C@H](C(=O)O)C1 [Compound 132, (3S)-1-[(2R)-2-[[4-(2,6-dichloro-4-fluoro-phenyl)-7-quinolyl]oxy]propanoyl]piperidine-3-carboxylic acid] | < 10 | < 20 |
| Cc1cscc1-c1ccnc2cc(O[C@H](C)C(=O)N3CCC[C@H](CC(=O)O)C3)ccc12 [Compound 133, 2-[(3R)-1-[(2R)-2-[[4-(4-methyl-3-thienyl)-7-quinolyl]oxy]propanoyl]-3-piperidyl]acetic acid] | 50 to 500 | 100 to 1000 |
| C[C@@H](Oc1ccc2c(-c3c(Cl)cc(F)cc3Cl)ccnc2c1)C(=O)N1CCC[C@](C)(C(=O)O)C1 [Compound 173, (3S)-1-[(2R)-2-[[4-(2,6-dichloro-4-fluoro-phenyl)-7-quinolyl]oxy]propanoyl]-3-methyl-piperidine-3-carboxylic acid] | < 10 | < 20 |
| Cc1cc(F)cc(C)c1-c1ccnc2cc(O[C@H](C)C(=O)N3CCC[C@@](C)(C(=O)O)C3)ccc12 [Compound 175, (3R)-1-[(2R)-2-[[4-(4-fluoro-2,6-dimethyl-phenyl)-7-quinolyl]oxy]propanoyl]-3-methyl-piperidine-3-carboxylic acid] | < 10 | < 20 |
| Cc1cc(F)cc(C)c1-c1ccnc2cc(O[C@H](C)C(=O)N3CCCC[C@@H]3C)ccc12 [Compound 176, (2R)-2-[[4-(4-fluoro-2,6-dimethyl-phenyl)-7-quinolyl]oxy]-1-[(2S)-2-methyl-1-piperidyl]propan-1-one] | 10 to 50 | < 20 |
| Cc1cc(F)cc(C)c1-c1ccnc2cc(O[C@H](C)C(=O)N3CCOCC3)ccc12 [Compound 178, (2R)-2-[[4-(4-fluoro-2,6-dimethyl-phenyl)-7-quinolyl]oxy]-1-morpholino-propan-1-one] | 10 to 50 | < 20 |
| Cc1cc(F)cc(C)c1-c1ccnc2cc(O[C@H](C)C(=O)N3CCC4(CC3)COC4)ccc12 [Compound 179, (2R)-2-[[4-(4-fluoro-2,6-dimethyl-phenyl)-7-quinolyl]oxy]-1-(2-oxa-7-azaspiro[3.5]nonan-7-yl)propan-1-one] | < 10 | < 20 |
| Cc1cc(F)cc(C)c1-c1ccnc2cc(O[C@H](C)C(=O)N3CCC4(CCNC4=O)CC3)ccc12 [Compound 181, 8-[(2R)-2-[[4-(4-fluoro-2,6-dimethyl-phenyl)-7-quinolyl]oxy]propanoyl]-2,8-diazaspiro[4.5]decan-1-one] | < 10 | < 20 |
| Cc1cc(F)cc(C)c1-c1ccnc2cc(O[C@H](C)C(=O)N3CCC[C@H](CC(=O)O)C3)ccc12 [Compound 183, 2-[(3R)-1-[(2R)-2-[[4-(4-fluoro-2,6-dimethyl-phenyl)-7-quinolyl]oxy]propanoyl]-3-piperidyl]acetic acid] | < 10 | < 20 |
| Cc1cc(F)cc(C)c1-c1ccnc2cc(O[C@H](C)C(=O)N3CCC[C@](C)(C(=O)O)C3)ccc12 [Compound 184, (3S)-1-[(2R)-2-[[4-(4-fluoro-2,6-dimethyl-phenyl)-7-quinolyl]oxy]propanoyl]-3-methyl-piperidine-3-carboxylic acid] | < 10 | < 20 |
| CC(=O)N(O)[C@H]1CCCN(C(=O)[C@@H](C)Oc2ccc3c(-c4c(C)cc(F)cc4C)ccnc3c2)C1 [Compound 185, N-[(3S)-1-[(2R)-2-[[4-(4-fluoro-2,6-dimethyl-phenyl)-7-quinolyl]oxy]propanoyl]-3-piperidyl]-N-hydroxy-acetamide] | < 10 | < 20 |
| Cc1cc(F)cc(C)c1-c1ccnc2cc(O[C@H](C)C(=O)N3CCCC[C@H]3C)ccc12 [Compound 187, (2R)-2-[[4-(4-fluoro-2,6-dimethyl-phenyl)-7-quinolyl]oxy]-1-[(2R)-2-methyl-1-piperidyl]propan-1-one] | < 10 | < 20 |
| C[C@@H](Oc1ccc2c(-c3c(Cl)cc(F)cc3Cl)ccnc2c1)C(=O)N1CCC[C@@](C)(C(=O)O)C1 [Compound 188, (3R)-1-[(2R)-2-[[4-(2,6-dichloro-4-fluoro-phenyl)-7-quinolyl]oxy]propanoyl]-3-methyl-piperidine-3-carboxylic acid] | 10 to 50 | < 20 |
| C[C@@H](Oc1ccc2c(-c3ccc(F)cc3Cl)ccnc2c1)C(=O)N1CCC[C@](C)(C(=O)O)C1 [Compound 189, (3S)-1-[(2R)-2-[[4-(2-chloro-4-fluoro-phenyl)-7-quinolyl]oxy]propanoyl]-3-methyl-piperidine-3-carboxylic acid] | < 10 | < 20 |
| C[C@@H](Oc1ccc2c(-c3c(Cl)cc(F)cc3Cl)ccnc2c1)C(=O)N1CCC[C@H](CC(=O)O)C1 [Compound 192, 2-[(3R)-1-[(2R)-2-[[4-(2,6-dichloro-4-fluoro-phenyl)-7-quinolyl]oxy]propanoyl]-3-piperidyl]acetic acid] | < 10 | 20 to 100 |
